Laboratory results as given in patent US8445522B2, “Substituted 2-(4-pyridyl)benzoxazoles, and compositions thereof, for use in arthropod pest control” (Sumitomo Chemical Company, Limited, priority 2009, dated 2013).

Legend:
Type in all cases: in vivo
rice brown planthopper [1] = experiment: Test Example 6: plant foot irrigation of rice plant seedling, rice brown planthopper released after seven days; conditions: Nilaparvata lugens, 144 h; 500 ppm, 5 ml plant foot irrigation of rice seedling; first-instars released after seven days, counted six days after; read-out: Control value
Procedure: The formulations were diluted with water so that the concentration of the active ingredient became 500 ppm and thus test diluents were prepared. On the other hand, a plant foot of rice plant seedling (two weeks after seeding, second leaf development stage) planted in a plastic cup was irrigated with any one of diluents (5 ml). The seedling was kept in a green house of 25° C. for seven days. Thirty first-instars of rice brown planthopper were released to the seedling, which was kept in the green house at 25 C for six days. Thereafter, the number of survived rice brown planthopper parasitic on rice plant leaves was counted, and the control value was calculated by the following equation. Control value(%)={1−(Cb×Tai)/(Cai×Tb)}×100 wherein each character represents the following meaning: Cb: number of insects in non-treated section before treatment Cai: number of insects in non-treated section during observation Tb: number of insects in treated section before treatment Tai: number of insects in treated section during observation

rice brown planthopper [2] = experiment: Test Example 5: test diluent scattered on rice plant seedling, rice brown planthopper released; conditions: Nilaparvata lugens, 144 h; 500 ppm, 10 ml scattered on rice plant seedling, 30 first-instars released, counted after six days at 25° C.; read-out: Control value
Procedure: The formulations were diluted with water so that the concentration of the active ingredient became 500 ppm and thus test diluents were prepared. On the other hand, to a rice plant seedling (two weeks after seeding, second leaf development stage) planted in a plastic cup, any one of the diluents (10 ml) was scattered. After the drug solution scattered on the rice plant was dried, 30 first-instars of rice brown planthopper were released on the rice plant, which was kept in the green house at 25° C. for six days. Thereafter, the number of rice brown planthopper parasitic on rice plant was counted and the control value was calculated by the following equation. Control value(%)={1−(Cb×Tai)/(Cai×Tb)}×100 wherein each character represents the following meaning: Cb: number of insects in non-treated section before treatment Cai: number of insects in non-treated section during observation Tb: number of insects in treated section before treatment Tai: number of insects in treated section during observation

cotton aphids [3] = experiment: Test Example 3: plant foot irrigation of cucumber seedling in plastic cup, cotton aphids inoculated after seven days; conditions: 144 h; 500 ppm, 5 ml plant foot irrigation, plastic cup; aphids inoculated after seven days at 25° C., counted six days after; read-out: Control value
Procedure: (§1) The formulations were diluted with water so that the concentration of the active ingredient became 500 ppm and thus test diluents were prepared. On the other hand, a plant foot of cucumber seedling (second true leaf development stage) planted in a plastic cup was irrigated with any one of diluents (5 ml). The seedling was kept in a green house of 25° C. for seven days. The cucumber leaves were inoculated with 30 cotton aphids (all stages) and kept in the green house for further six days. Thereafter, the number of survived cotton aphids parasitic on the cucumber leaves was counted, and the control value was calculated by the following equation. Control value(%)={1−(Cb×Tai)/(Cai×Tb)}×100 wherein each character represents the following meaning: Cb: number of insects in non-treated section before treatment Cai: number of insects in non-treated section during observation Tb: number of insects in treated section before treatment Tai: number of insects in treated section during observation

tobacco whitefly = experiment: Test Example 4: test diluent scattered on tomato seedling with hatched tobacco whitefly larvae; conditions: 168 h; 500 ppm, 10 ml/cup scattered on tomato seedling at larvae stage, counted after seven days at 25° C.; read-out: Control value
Procedure: The formulations were diluted with water so that the concentration of the active ingredient became 500 ppm and thus test diluents were prepared. On the other hand, by releasing tobacco whitefly imagos to a tomato seedling planted in a plastic cup to allow them to lay eggs for about 24 hours. The tomato seedling was kept in a green house for eight days. At the stage in which larvae hatched from the laid eggs, any of the test diluents was scattered at the rate of 10 ml/cup. The tomato seedling was kept in the greenhouse at 25° C. for seven days. The number of survived larvae on tomato leaves was counted, and the control value was calculated by the following equation. Control value(%)={1−(Cb×Tai)/(Cai×Tb)}×100 wherein each character represents the following meaning: Cb: number of insects in non-treated section before treatment Cai: number of insects in non-treated section during observation Tb: number of insects in treated section before treatment Tai: number of insects in treated section during observation

cotton aphids [4] = experiment: Test Example 2: plant foot irrigation of cucumber seedling in urethane mat, cotton aphids inoculated one day after treatment; conditions: 168 h; 500 ppm, 5 ml plant foot irrigation, urethane mat; aphids inoculated one day after treatment, counted seven days after; read-out: Control value
Procedure: as §1, with “urethane mat” for “plastic cup”, “One day after the treatment, the” for “The seedling was kept in a green house of 25° C. for seven days. The”, “stages). Further seven days after,” for “stages) and kept in the green house for further six days. Thereafter,”

[5] = tested on: cotton aphids (Aphis gossypii Glover); experiment: Test Example 1: test diluent scattered on cucumber seedling inoculated with cotton aphids; conditions: 120 h, 500 ppm active ingredient, 10 ml scattered on cucumber seedling, counted five days after scattering, read-out: Control value
Procedure: The formulations were diluted with water so that the concentration of the active ingredient became 500 ppm and thus test diluents were prepared. On the other hand, a cucumber seedling (second true leaf development stage) planted in a plastic cup was inoculated with about 30 cotton aphids (Aphis gossypii Glover) and allowed to stand for one day. To the seedling, any one of the diluents (10 ml) was scattered. Five days after the scattering, the number of survived cotton aphids parasitic on the cucumber leaves was counted, and the control value was calculated by the following equation. Control value(%)={1−(Cb×Tai)/(Cai×Tb)}×100 wherein each character represents the following meaning: Cb: the number of insects in non-treated section before treatment Cai: the number of insects in non-treated section during observation Tb: the number of insects in treated section before treatment Tai: the number of insects in treated section during observation

FC(F)(F)c1cnc2oc(-c3ccncc3Cl)nc2c1 [Active Compound 139, 2-(3-chloropyridin-4-yl)-6-(trifluoromethyl)oxazolo[5,4-b]pyridine]
pest or weed control at 500 ppm (rice brown planthopper [1]): ≥ 90% | pest or weed control at 500 ppm (rice brown planthopper [2]): ≥ 90%

FC(F)(F)c1cnc2oc(-c3ccncc3C(F)(F)F)nc2c1 [Active Compound 144, 6-trifluoromethyl-2-[3-(trifluoromethyl)pyridin-4-yl]-oxazolo[5,4-b]pyridine]
pest or weed control at 500 ppm (cotton aphids [3]): ≥ 90%

COc1cnccc1-c1nc2cc(C(F)(F)F)cnc2o1 [Active Compound 145, 2-(3-methoxypyridin-4-yl)-6-(trifluoromethyl)oxazolo[5,4-b]pyridine]
pest or weed control at 500 ppm (cotton aphids [3]): ≥ 90%

CCCc1ccc2oc(-c3ccncc3)nc2c1 [active compound 1, 5-propyl-2-(pyridin-4-yl)-benzoxazole]
pest or weed control at 500 ppm (tobacco whitefly): ≥ 90% | pest or weed control at 500 ppm (rice brown planthopper [2]): ≥ 90%

CC(C)(C)c1ccc2nc(-c3ccncc3)oc2c1 [active compound 8, 6-tert-butyl-2-(pyridin-4-yl)-benzoxazole]
pest or weed control at 500 ppm (tobacco whitefly): ≥ 90% | pest or weed control at 500 ppm (rice brown planthopper [2]): ≥ 90%

[O-][n+]1ccc(-c2nc3cc(C(F)(F)F)ccc3o2)c(Cl)c1 [active compound 19, 3-chloro-4-[5-(trifluoromethyl)benzoxazole-2-yl]pyridine N-oxide]
pest or weed control at 500 ppm (cotton aphids [3]): ≥ 90% | pest or weed control at 500 ppm (cotton aphids [4]): ≥ 90%

Cc1c[n+]([O-])ccc1-c1nc2cc(C(F)(F)F)ccc2o1 [active compound 24, 3-methyl-4-[5-(trifluoromethyl)benzoxazole-2-yl]pyridine N-oxide]
pest or weed control at 500 ppm (rice brown planthopper [1]): ≥ 90% | pest or weed control at 500 ppm (cotton aphids [3]): ≥ 90%

Fc1cnccc1-c1nc2cc(C(F)(F)F)ccc2o1 [active compound 25, 2-(3-fluoropyridin-4-yl)-5-(trifluoromethyl)benzoxazole]
pest or weed control at 500 ppm (rice brown planthopper [1]): ≥ 90% | pest or weed control at 500 ppm (cotton aphids [3]): ≥ 90%

FC(F)(F)c1ccc2oc(-c3ccncc3-c3ccccc3)nc2c1 [active compound 32, 2-(3-phenylpyridin-4-yl)-5-(trifluoromethyl)benzoxazole]
pest or weed control at 500 ppm (rice brown planthopper [2]): ≥ 90%

C#Cc1cnccc1-c1nc2cc(C(F)(F)F)ccc2o1 [active compound 34, 2-(3-ethynylpyridin-4-yl)-5-(trifluoromethyl)benzoxazole]
pest or weed control at 500 ppm (tobacco whitefly): ≥ 90% | pest or weed control at 500 ppm [5]: ≥ 90% | pest or weed control at 500 ppm (rice brown planthopper [2]): ≥ 90%

FC(F)(F)CSc1cnccc1-c1nc2cc(C(F)(F)F)ccc2o1 [active compound 46, 2-[3-(2,2,2-trifluoroethylthio)pyridin-4-yl]-5-(trifluoromethyl)benzoxazole]
pest or weed control at 500 ppm (rice brown planthopper [1]): ≥ 90% | pest or weed control at 500 ppm (tobacco whitefly): ≥ 90% | pest or weed control at 500 ppm [5]: ≥ 90% | pest or weed control at 500 ppm (rice brown planthopper [2]): ≥ 90%

Cc1cnn(-c2cnccc2-c2nc3cc(C(F)(F)F)ccc3o2)c1 [active compound 61, 2-[3-(4-methylpyrazole-1-yl)pyridin-4-yl]-5-(trifluoromethyl)benzoxazole]
pest or weed control at 500 ppm [5]: ≥ 90% | pest or weed control at 500 ppm (rice brown planthopper [2]): ≥ 90%

FC(F)(F)C(F)(c1ccc2oc(-c3ccncc3)nc2c1)C(F)(F)F [active compound 67, 2-(pyridin-4-yl)-5-(heptafluoroisopropyl)benzoxazole]
pest or weed control at 500 ppm (rice brown planthopper [2]): ≥ 90%

COc1cnccc1-c1nc2cc3c(cc2o1)C(F)(F)OC3(F)F [active compound 88, 5,5,7,7-tetrafluoro-2-(3-methoxypyridin-4-yl)-5,7-dihydro-furo[3′,4′:4,5]benzo[1,2-d]oxazole]
pest or weed control at 500 ppm (cotton aphids [4]): ≥ 90% | pest or weed control at 500 ppm (tobacco whitefly): ≥ 90% | pest or weed control at 500 ppm [5]: ≥ 90% | pest or weed control at 500 ppm (rice brown planthopper [2]): ≥ 90%

FC(F)(F)COc1cnccc1-c1nc2cc3c(cc2o1)C(F)(F)OC3(F)F [active compound 89, 5,5,7,7-tetrafluoro-2-[3-(2,2,2-trifluoroethoxy)pyridin-4-yl]-5,7-dihydro-furo[3′,4′:4,5]benzo[1,2-d]oxazole]
pest or weed control at 500 ppm (tobacco whitefly): ≥ 90% | pest or weed control at 500 ppm [5]: ≥ 90% | pest or weed control at 500 ppm (rice brown planthopper [2]): ≥ 90%

CC(C)Oc1cnccc1-c1nc2cc3c(cc2o1)C(F)(F)OC3(F)F [active compound 97, 5,5,7,7-tetrafluoro-2-(3-isopropoxypyridin-4-yl)-5,7-dihydro-furo[3′,4′:4,5]benzo[1,2-d]oxazole]
pest or weed control at 500 ppm (rice brown planthopper [1]): ≥ 90% | pest or weed control at 500 ppm (tobacco whitefly): ≥ 90% | pest or weed control at 500 ppm [5]: ≥ 90% | pest or weed control at 500 ppm (rice brown planthopper [2]): ≥ 90%

CCc1cnccc1-c1nc2cc3c(cc2o1)C(F)(F)OC3(F)F [active compound 98, 2-(3-ethylpyridin-4-yl)-5,5,7,7-tetrafluoro-5,7-dihydro-furo[3′,4′:4,5]benzo[1,2-d]oxazole]
pest or weed control at 500 ppm (rice brown planthopper [1]): ≥ 90% | pest or weed control at 500 ppm (tobacco whitefly): ≥ 90% | pest or weed control at 500 ppm [5]: ≥ 90% | pest or weed control at 500 ppm (rice brown planthopper [2]): ≥ 90%

CC(C)(C)c1ccc2oc(-c3ccncc3C(F)(F)F)nc2c1 [active compound 107, 5-tert-butyl-2-(3-trifluoromethylpyridin-4-yl)benzoxazole]
pest or weed control at 500 ppm (rice brown planthopper [1]): ≥ 90% | pest or weed control at 500 ppm (cotton aphids [4]): ≥ 90% | pest or weed control at 500 ppm (tobacco whitefly): ≥ 90% | pest or weed control at 500 ppm (rice brown planthopper [2]): ≥ 90%

CCOCCOc1cnccc1-c1nc2cc(C(F)(F)F)ccc2o1 [active compound 122, 2-[3-(2-ethoxyethoxy)pyridin-4-yl]-5-(trifluoromethyl)benzoxazole]
pest or weed control at 500 ppm (tobacco whitefly): ≥ 90% | pest or weed control at 500 ppm [5]: ≥ 90% | pest or weed control at 500 ppm (rice brown planthopper [2]): ≥ 90%

CCCCCOc1cnccc1-c1nc2cc(C(F)(F)F)ccc2o1 [active compound 123, 2-(3-pentyloxypyridin-4-yl)-5-(trifluoromethyl)benzoxazole]
pest or weed control at 500 ppm (tobacco whitefly): ≥ 90% | pest or weed control at 500 ppm (rice brown planthopper [2]): ≥ 90%

CS(=O)(=O)c1cnccc1-c1nc2cc(C(F)(F)F)ccc2o1 [active compound 135, 2-[3-(methanesulfonyl)pyridin-4-yl]-5-(trifluoromethyl)benzoxazole]
pest or weed control at 500 ppm (cotton aphids [3]): ≥ 90%

FC(F)(F)c1cnc2oc(-c3ccncc3)nc2c1 [active compound 138, 2-pyridin-4-yl-6-(trifluoromethyl)oxazolo[5,4-b]pyridine]
pest or weed control at 500 ppm (rice brown planthopper [2]): ≥ 90%
